These results are taken from ChEMBL document CHEMBL1201862, “PubChem BioAssay data set” (2004).

The target in assay [1] is T1, Replicative DNA helicase DnaB (Mycobacterium tuberculosis, UniProt P9WMR3).
T1 sequence (P9WMR3 whole entry): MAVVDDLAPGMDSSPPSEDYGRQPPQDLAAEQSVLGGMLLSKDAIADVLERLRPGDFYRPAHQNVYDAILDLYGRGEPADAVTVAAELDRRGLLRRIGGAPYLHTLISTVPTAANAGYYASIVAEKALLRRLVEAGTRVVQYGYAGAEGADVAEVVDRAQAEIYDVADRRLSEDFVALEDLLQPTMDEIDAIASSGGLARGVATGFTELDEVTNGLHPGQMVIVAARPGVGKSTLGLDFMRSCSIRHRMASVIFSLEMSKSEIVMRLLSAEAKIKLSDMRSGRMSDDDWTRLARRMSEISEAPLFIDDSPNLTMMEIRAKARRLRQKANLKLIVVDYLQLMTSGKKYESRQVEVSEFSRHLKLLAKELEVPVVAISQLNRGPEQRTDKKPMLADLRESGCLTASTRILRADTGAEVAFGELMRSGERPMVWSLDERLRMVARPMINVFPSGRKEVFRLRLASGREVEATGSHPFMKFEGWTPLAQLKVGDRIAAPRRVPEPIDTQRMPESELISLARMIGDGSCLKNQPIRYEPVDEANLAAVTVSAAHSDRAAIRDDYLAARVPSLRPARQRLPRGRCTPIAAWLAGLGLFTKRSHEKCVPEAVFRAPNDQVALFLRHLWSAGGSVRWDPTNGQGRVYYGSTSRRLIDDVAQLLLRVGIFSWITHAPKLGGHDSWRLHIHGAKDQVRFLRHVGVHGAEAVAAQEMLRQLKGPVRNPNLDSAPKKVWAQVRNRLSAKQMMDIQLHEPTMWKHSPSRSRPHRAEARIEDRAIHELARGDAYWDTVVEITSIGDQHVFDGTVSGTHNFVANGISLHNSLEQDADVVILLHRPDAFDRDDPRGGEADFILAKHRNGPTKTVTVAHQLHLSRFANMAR
The experiment in a line: DnaB intein splicing inhibitors, dose response, biochemical, cell-free fluorescence (AID 449749). It is filed as functional.

Another assay deals with Troponin, cardiac muscle (Homo sapiens, UniProt P19429+P45379+P63316). The experiment in a line: Fluorescence-based biochemical high throughput dose response assay for activators of the calcium sensitivity of cardiac Regulated Thin Filaments (RTF). [Related pubchem assays (depositor defined):AID493008, AID493018, AID504382, AID504383]. The format is protein-complex assay.

The target of the next assay is T2, Protein RecA (Mycobacterium tuberculosis, UniProt P9WHJ3).
T2 sequence (P9WHJ3 whole entry): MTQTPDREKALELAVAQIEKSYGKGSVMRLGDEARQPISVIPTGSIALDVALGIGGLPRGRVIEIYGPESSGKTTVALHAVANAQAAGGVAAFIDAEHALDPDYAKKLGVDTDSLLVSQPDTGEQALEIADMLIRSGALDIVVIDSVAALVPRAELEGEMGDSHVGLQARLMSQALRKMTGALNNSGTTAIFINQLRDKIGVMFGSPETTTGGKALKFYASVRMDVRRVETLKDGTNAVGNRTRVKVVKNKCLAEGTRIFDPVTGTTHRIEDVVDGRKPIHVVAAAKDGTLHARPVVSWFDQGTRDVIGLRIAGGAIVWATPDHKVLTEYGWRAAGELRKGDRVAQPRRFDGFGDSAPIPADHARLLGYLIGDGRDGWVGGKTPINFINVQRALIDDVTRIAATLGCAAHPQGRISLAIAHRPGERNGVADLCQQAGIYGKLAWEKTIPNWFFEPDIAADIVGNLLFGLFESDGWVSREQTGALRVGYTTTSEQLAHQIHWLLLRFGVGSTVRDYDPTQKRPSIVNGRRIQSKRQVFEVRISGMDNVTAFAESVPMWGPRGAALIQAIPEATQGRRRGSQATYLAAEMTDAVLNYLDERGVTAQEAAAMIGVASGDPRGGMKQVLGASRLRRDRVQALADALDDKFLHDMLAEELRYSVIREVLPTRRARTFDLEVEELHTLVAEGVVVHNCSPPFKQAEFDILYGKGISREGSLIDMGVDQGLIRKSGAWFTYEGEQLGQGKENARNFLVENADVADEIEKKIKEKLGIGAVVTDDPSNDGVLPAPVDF
Description: Fluorescence Cell-Free Homogeneous Dose Retest to Identify Inhibitors of RecA-Intein Splicing Activity. [Related pubchem assays (depositor defined):AID2097, AID2223, AID489010, AID492950]. The format is functional.

For another assay, the target named is Ion channel NompC (Danio rerio, UniProt Q7T1G6). Description: Dose response cell-based high-throughput screening assay for agonists of the transient receptor potential channel N1 (TRPN1). [Related pubchem assays (depositor defined):AID1424, AID1448]. The format is functional.
The nature of assay [2]: microbe, parasite or virus in culture. The format is functional. Conditions: Mycobacterium tuberculosis.
In a further assay the target is T3, Mucolipin-3 (Homo sapiens, UniProt Q8TDD5).
T3 sequence (Q8TDD5 whole entry): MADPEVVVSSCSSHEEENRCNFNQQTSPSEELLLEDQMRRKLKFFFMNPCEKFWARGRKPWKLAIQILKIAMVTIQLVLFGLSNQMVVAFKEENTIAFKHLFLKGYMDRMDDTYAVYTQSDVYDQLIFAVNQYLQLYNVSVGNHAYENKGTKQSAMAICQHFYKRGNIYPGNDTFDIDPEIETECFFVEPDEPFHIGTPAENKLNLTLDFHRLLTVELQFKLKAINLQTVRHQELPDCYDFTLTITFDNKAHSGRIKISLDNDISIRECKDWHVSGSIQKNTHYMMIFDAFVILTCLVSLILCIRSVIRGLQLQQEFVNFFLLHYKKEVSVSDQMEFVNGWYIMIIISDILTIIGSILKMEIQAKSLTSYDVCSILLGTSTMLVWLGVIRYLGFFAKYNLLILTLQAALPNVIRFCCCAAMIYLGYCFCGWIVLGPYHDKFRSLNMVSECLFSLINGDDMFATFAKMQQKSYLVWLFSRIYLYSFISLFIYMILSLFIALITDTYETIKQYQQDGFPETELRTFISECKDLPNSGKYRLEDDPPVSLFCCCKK
The experiment in a line: Fluorescence counterscreen assay for […] agonists: dose response cell-based high-throughput screening assay to identify agonists of the transient receptor potential channel ML3 (TRPML3). [Related pubchem assays: 1424, 1448 ]. It is filed as functional. A general note: Counterscreens check selectivity or assay interference.

For assay [3], the target named is Peroxisome proliferator-activated receptor gamma/Nuclear receptor coactivator 2 (Homo sapiens, UniProt P37231). The experiment in a line: TR-FRET dose response biochemical High Throughput Screening assay for agonists of the steroid receptor coactivator 2 (SRC-2) recruitment by the peroxisome proliferator-activated receptor gamma (PPAR gamma): non-selective agonists. [Related pubchem assays: 1297, 1032 ]. It is filed as functional.

The target in assay [4] is Peroxisome proliferator-activated receptor gamma/Nuclear receptor coactivator 1 (Homo sapiens, UniProt P37231). Description: TR-FRET dose response biochemical High Throughput Screening assay for agonists of the steroid receptor coactivator 1 (SRC-1) recruitment by the peroxisome proliferator-activated receptor gamma (PPAR gamma): non-selective agonists. [Related pubchem assays (depositor defined):AID1300, AID1808, AID504735, AID631]. The format is protein assay.

The target in assay [5] is Peroxisome proliferator-activated receptor gamma/Nuclear receptor coactivator 3 (Homo sapiens, UniProt P37231). The experiment in a line: TR-FRET dose response biochemical High Throughput Screening assay for agonists of the steroid receptor coactivator 3 (SRC-3) recruitment by the peroxisome proliferator-activated receptor gamma (PPAR gamma): non-selective agonists. [Related pubchem assays: 1301 (Confirmation screen.), 1048 (Primary screen.)]. The format is functional. On the technique in general: TR-FRET usually uses a lanthanide donor and a delayed reading to cut background.

Assay [6] concerns the target DNA dC->dU-editing enzyme APOBEC-3A (Homo sapiens, UniProt P31941). The experiment in a line: Dose Response confirmation of small molecule APOBEC3A DNA Deaminase Inhibitors via a fluorescence-based single-stranded DNA deaminase assay. [Related pubchem assays (depositor defined):AID493011, AID493024]. It is filed as functional.
The target of assay [7] is DNA dC->dU-editing enzyme APOBEC-3G (Homo sapiens, UniProt Q9HC16). The format is functional.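 Also: Dose-response counterscreen measuring inhibition of APOBEC3G DNA deaminase activity, run while confirming APOBEC3A inhibitors.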
Assay [8] has as its target T4, Lytic switch protein BZLF1 (Epstein-Barr virus (strain B95-8) (HHV-4) (Human herpesvirus 4), UniProt P03206).
T4 sequence (P03206 whole entry): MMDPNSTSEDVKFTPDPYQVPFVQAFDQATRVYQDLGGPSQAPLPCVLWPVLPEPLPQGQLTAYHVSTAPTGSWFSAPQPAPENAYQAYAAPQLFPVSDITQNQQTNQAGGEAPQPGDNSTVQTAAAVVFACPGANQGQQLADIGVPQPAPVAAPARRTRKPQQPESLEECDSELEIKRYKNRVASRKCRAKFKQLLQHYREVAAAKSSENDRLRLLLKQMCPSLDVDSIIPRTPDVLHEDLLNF
Description: inhibition of BZLF1 ZTA DNA binding – biochemical, fluorescence polarization, Epstein-Barr virus, 1536-well, counter-screen for EBNA-1 inhibitor project, dose response (AID 2377).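 Also: fluorescence polarization of Cy5-labelled ZRE DNA probe bound by purified Zta.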 The arrangement: species or system human gammaherpesvirus 4. For orientation: Fluorescence polarisation rises when a labelled molecule tumbles more slowly, as on binding a larger partner.

The next assay has as its target Cytochrome P450 2C19 (Homo sapiens, UniProt P33261). The experiment in a line: Cytochrome panel assay with activity outcomes. Panel member name: p450-cyp2c19 Compounds with AC50 equal or less than 10 uM are considered active. The format is functional. As to conditions: read-out: AC50.
Assay [9] deals with T5, Epstein-Barr nuclear antigen 1 (Epstein-Barr virus (strain B95-8) (HHV-4) (Human herpesvirus 4), UniProt P03211).
T5 sequence (P03211 whole entry): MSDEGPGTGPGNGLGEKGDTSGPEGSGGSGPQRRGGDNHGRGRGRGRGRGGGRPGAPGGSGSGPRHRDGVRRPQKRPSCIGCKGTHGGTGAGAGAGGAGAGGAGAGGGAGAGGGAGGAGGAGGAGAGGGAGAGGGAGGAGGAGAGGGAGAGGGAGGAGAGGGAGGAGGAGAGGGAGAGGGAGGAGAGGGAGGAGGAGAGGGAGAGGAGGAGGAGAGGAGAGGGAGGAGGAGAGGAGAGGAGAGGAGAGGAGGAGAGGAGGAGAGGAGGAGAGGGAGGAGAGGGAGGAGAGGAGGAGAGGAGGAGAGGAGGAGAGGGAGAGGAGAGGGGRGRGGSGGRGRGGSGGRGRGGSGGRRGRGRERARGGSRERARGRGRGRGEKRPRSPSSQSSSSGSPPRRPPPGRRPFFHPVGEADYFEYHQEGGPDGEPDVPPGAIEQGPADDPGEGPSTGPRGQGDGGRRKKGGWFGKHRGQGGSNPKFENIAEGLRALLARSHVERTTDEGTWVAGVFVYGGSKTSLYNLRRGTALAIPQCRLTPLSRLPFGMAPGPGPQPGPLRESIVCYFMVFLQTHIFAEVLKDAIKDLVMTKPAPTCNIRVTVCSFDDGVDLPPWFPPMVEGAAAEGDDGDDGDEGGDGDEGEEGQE
The experiment in a line: inhibition of EBV nuclear antigen 1 DNA binding – biochemical, fluorescence polarization, 1536-well, dose response (AID 2381).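 Also: fluorescence polarization of a Cy5 DNA probe bound by EBNA-1 protein.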 The arrangement: species or system human gammaherpesvirus 4.

Assay [10] deals with DNA damage-inducible transcript 3 protein (Mus musculus, UniProt P35639). It is filed as functional, Cricetulus griseus.

Molecules are shown by their SMILES. Active and inactive are the calls of the source.

In the case of `Cc1cccc(/C=N/NC(=O)C(C)Nc2cccc3ccccc23)n1` (stereo not drawn), the AC50 (in general, the concentration giving half of the maximal activity seen) in assay [1] was 3.78 µM (active). The EC50 (as a rule, the concentration needed to bring the measured effect to its halfway point) was 10.5 µM (inactive) at Troponin, cardiac muscle and 47.1 µM (active) on Protein RecA.
For `COc1cc(CCCN2C(S)=NC[C@@H]2CC2CCCCC2)cc(OC)c1OC`, the EC50 on Troponin, cardiac muscle is > 71.5 µM (inactive).
In the case of `C/C(=C1/C(=O)N(c2ccc([N+](=O)[O-])cc2)N=C1c1ccccc1)N(C)C`, the EC50 at Ion channel NompC was 3.71 µM (active); on Mucolipin-3 it was 5.21 µM (active). Besides, the CC50 in assay [2] was 10.6 µM (active).
Consider `CSc1oc(-c2ccccc2)nc1C(N)=O`, for which the figures for the EC50 in assay [3], in [4] and in [5] were 60.1 µM (not active), 359 µM (inactive) and > 79.4 µM (not active), respectively.
`Cc1ccc(C(=O)Nc2cc(Cl)ccc2-n2cncn2)o1`: the IC50 (as a rule, the concentration needed to halve the response being measured) in assay [6] was 85 µM (active); in assay [7] it was 20.5 µM (active).
Take `Cc1cc(O)nc(SCC(=O)Nc2ccccc2C)n1`: the EC50 at Ion channel NompC was > 29.9 µM (inactive); at Mucolipin-3, > 29.9 µM (not active).
On to `Cc1cccc(OCC(=O)N/N=C\C=C\c2ccc3c(c2)OCO3)c1C`, for which the values for the half-inhibitory concentration (IC50) in assay [8] and in assay [9] were > 111 µM (not active) and 5.84 µM (active), respectively. Besides, the AC50 on Cytochrome P450 2C19 was 10 µM (inconclusive). The “Absolute IC50 (CHOP)” value in assay [10] is 10 µM.
